The values that follow come from ChEMBL document CHEMBL3745672, “Novel compounds reducing IRS-1 serine phosphorylation for treatment of diabetes” (Bioorg Med Chem Lett, 2016).

Test [1] has as its target Serine/threonine-protein kinase PAK 4 (Homo sapiens) (UniProt O96013). Briefly: Inhibition of PAK4 (unknown origin) at 10 uM.
For test [2], the target named is Mast/stem cell growth factor receptor Kit (Homo sapiens) (UniProt P10721). Briefly: Inhibition of cKIT (unknown origin) at 10 uM.
Test [3] concerns the target T1, Mitogen-activated protein kinase 8 (Homo sapiens, UniProt P45983). The test is described as follows: Inhibition of JNK1 (unknown origin) expressed in HEK293 cells assessed as anisomycin-induced c-Jun phosphorylation at 10 uM incubated for 30 mins by Western blot analysis relative to anisomycin. The format is cell-based. Also on record: scale not given: the % may be the effect or the level left. In general terms: Immunoblotting shows a protein as a band on a membrane.

In test [4] the target is Serine/threonine-protein kinase B-raf (Homo sapiens) (UniProt P15056). Briefly: Inhibition of B-RAF (unknown origin) at 10 uM.
The target of test [5] is Rho-associated protein kinase 2 (Homo sapiens) (UniProt O75116). Briefly: Inhibition of ROCK2 (unknown origin) at 10 uM.
Test [6] addresses CDK2/Cyclin A2 (Homo sapiens) (UniProt P24941+P20248). Briefly: Inhibition of CDK2/CyclinA (unknown origin) at 10 uM. The format is protein-complex assay.
Test [7] addresses Epithelial discoidin domain-containing receptor 1 (Homo sapiens) (UniProt Q08345). Briefly: Inhibition of DDR1 (unknown origin) at 10 uM.
The target of test [8] is Hepatocyte growth factor receptor (Homo sapiens) (UniProt P08581). Briefly: Inhibition of cMET (unknown origin) at 10 uM.
Test [9] has as its target Serine/threonine-protein kinase PLK3 (Homo sapiens) (UniProt Q9H4B4). Briefly: Inhibition of PLK3 (unknown origin) at 10 uM.
Test [10] concerns the target Tyrosine-protein kinase ABL1 (Homo sapiens) (UniProt P00519). Briefly: Inhibition of ABL (unknown origin) at 10 uM.
In test [11] the target is Insulin receptor (Homo sapiens) (UniProt P06213). Briefly: Inhibition of INSR (unknown origin) at 10 uM.
For test [12], the target named is Receptor tyrosine-protein kinase erbB-2 (Homo sapiens) (UniProt P04626). Briefly: Inhibition of ERBB2 (unknown origin) at 10 uM.
Test [13] concerns the target Vascular endothelial growth factor receptor 2 (Homo sapiens) (UniProt P35968). The test is described as follows: Inhibition of VEGFR2 (unknown origin) at 10 uM.
Test [14] deals with Serine/threonine-protein kinase pim-1 (Homo sapiens) (UniProt P11309). Briefly: Inhibition of PIM1 (unknown origin) at 10 uM.
The target in test [15] is Proto-oncogene tyrosine-protein kinase receptor Ret (Homo sapiens) (UniProt P07949). Briefly: Inhibition of RET (unknown origin) at 10 uM.
The target in test [16] is Platelet-derived growth factor receptor beta (Homo sapiens) (UniProt P09619). The test is described as follows: Inhibition of PDGFRbeta (unknown origin) at 10 uM.
Test [17] has as its target Proto-oncogene tyrosine-protein kinase Src (Homo sapiens) (UniProt P12931). Briefly: Inhibition of SRC (unknown origin) at 10 uM.
Test [18] concerns the target T1, Mitogen-activated protein kinase 8. Briefly: Inhibition of JNK1 (unknown origin).
For test [19], the target named is RAC-alpha serine/threonine-protein kinase (Homo sapiens) (UniProt P31749). Briefly: Inhibition of AKT1 (unknown origin) at 10 uM.
Test [20] deals with Serine/threonine-protein kinase mTOR (Homo sapiens) (UniProt P42345). The test is described as follows: Inhibition of mTOR (unknown origin) at 10 uM.
Test [21] deals with T2, Tyrosine-protein kinase JAK3 (Homo sapiens) (UniProt P52333).
T2 sequence (whole entry): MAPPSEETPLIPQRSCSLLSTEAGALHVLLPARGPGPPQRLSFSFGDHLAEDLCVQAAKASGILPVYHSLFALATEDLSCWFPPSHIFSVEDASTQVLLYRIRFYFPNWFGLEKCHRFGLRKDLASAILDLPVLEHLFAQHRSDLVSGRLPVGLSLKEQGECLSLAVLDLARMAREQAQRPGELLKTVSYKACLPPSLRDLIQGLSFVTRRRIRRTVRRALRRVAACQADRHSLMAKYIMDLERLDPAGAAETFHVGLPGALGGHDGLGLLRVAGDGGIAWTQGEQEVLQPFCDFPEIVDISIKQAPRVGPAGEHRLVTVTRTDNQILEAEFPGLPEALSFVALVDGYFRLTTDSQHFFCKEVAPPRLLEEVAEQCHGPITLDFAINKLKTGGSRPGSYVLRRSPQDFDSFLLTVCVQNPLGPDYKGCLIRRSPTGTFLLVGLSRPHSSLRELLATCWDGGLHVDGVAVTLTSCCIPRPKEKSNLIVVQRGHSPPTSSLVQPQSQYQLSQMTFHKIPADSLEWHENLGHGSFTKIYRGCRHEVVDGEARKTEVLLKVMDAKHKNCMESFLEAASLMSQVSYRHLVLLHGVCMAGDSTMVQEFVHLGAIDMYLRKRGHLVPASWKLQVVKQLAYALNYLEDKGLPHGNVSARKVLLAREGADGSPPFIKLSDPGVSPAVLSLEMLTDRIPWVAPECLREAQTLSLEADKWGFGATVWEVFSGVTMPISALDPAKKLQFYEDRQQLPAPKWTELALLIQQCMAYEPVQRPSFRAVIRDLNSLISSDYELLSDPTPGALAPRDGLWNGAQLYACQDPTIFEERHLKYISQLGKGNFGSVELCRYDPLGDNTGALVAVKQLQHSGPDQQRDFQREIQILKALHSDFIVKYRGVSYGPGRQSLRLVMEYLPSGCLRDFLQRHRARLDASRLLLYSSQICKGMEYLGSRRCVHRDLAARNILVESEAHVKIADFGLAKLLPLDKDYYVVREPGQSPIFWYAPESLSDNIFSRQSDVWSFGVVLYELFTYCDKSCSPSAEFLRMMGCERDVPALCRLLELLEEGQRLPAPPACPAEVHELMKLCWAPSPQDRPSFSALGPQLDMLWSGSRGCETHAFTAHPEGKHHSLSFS
The test is described as follows: Inhibition of JAK3 (unknown origin) at 10 uM.

Test [22] concerns the target Death-associated protein kinase 3 (Homo sapiens) (UniProt O43293). The test is described as follows: Inhibition of DAPK3 (unknown origin) at 10 uM.
For test [23], the target named is T3, Aurora kinase A (Homo sapiens) (UniProt O14965).
T3 sequence (whole entry): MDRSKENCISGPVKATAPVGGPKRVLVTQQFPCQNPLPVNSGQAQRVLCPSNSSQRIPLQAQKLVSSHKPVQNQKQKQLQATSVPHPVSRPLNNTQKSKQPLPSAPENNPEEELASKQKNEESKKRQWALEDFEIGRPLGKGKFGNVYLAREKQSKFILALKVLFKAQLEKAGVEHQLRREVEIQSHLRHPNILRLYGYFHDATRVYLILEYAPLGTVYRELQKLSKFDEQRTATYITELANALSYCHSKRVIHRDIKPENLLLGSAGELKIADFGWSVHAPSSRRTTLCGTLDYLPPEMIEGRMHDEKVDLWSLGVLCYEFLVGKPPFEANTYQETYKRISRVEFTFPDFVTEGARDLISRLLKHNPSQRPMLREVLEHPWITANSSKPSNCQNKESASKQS
Briefly: Inhibition of AurA (unknown origin) at 10 uM.

Chain of Proto-oncogene tyrosine-protein kinase receptor Ret (Homo sapiens) (P07949 whole entry): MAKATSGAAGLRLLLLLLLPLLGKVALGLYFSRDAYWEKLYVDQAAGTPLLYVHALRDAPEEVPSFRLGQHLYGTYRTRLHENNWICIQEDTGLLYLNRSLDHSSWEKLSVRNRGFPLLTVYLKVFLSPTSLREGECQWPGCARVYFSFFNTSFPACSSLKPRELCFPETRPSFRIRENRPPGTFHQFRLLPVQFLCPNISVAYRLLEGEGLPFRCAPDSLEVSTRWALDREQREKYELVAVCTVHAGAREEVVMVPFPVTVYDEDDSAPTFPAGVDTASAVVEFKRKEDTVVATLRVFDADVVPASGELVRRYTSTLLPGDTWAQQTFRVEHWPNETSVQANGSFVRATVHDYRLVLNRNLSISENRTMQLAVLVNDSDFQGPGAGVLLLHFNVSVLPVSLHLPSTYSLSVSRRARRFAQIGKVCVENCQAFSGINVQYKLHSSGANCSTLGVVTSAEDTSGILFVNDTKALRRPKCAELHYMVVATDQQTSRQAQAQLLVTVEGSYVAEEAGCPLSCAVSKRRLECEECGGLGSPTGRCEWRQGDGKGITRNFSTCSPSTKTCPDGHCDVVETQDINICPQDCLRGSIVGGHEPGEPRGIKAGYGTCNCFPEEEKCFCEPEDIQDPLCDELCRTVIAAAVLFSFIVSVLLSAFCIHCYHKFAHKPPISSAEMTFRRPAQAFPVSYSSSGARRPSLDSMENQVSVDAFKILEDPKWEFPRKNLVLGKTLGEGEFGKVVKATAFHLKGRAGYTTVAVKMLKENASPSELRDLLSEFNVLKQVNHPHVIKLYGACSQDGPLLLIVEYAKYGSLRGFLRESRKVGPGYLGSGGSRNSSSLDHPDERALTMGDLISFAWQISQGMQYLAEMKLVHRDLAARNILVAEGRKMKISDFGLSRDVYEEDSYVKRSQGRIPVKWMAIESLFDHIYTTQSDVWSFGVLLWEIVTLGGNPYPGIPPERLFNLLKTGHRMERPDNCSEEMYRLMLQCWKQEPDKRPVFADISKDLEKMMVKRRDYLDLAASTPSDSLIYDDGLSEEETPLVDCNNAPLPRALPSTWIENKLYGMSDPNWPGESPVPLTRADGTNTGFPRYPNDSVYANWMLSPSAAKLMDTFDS
Chain of Serine/threonine-protein kinase PAK 4 (Homo sapiens) (O96013 whole entry, looked up): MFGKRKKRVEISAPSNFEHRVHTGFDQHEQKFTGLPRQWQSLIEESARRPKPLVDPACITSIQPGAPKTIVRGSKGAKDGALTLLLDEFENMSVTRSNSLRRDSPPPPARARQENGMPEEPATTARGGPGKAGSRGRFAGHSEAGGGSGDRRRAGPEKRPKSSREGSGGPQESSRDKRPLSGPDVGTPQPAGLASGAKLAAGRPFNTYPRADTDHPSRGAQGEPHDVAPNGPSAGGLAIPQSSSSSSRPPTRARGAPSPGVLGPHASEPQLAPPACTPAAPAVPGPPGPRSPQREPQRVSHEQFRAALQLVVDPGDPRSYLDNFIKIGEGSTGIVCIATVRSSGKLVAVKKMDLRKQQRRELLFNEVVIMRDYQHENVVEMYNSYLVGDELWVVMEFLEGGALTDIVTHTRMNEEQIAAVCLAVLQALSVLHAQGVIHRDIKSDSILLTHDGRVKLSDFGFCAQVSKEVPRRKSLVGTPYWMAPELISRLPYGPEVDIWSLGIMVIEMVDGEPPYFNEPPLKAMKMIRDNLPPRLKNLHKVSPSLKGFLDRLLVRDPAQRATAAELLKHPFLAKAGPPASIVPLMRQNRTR
Chain of Vascular endothelial growth factor receptor 2 (Homo sapiens) (P35968 whole entry): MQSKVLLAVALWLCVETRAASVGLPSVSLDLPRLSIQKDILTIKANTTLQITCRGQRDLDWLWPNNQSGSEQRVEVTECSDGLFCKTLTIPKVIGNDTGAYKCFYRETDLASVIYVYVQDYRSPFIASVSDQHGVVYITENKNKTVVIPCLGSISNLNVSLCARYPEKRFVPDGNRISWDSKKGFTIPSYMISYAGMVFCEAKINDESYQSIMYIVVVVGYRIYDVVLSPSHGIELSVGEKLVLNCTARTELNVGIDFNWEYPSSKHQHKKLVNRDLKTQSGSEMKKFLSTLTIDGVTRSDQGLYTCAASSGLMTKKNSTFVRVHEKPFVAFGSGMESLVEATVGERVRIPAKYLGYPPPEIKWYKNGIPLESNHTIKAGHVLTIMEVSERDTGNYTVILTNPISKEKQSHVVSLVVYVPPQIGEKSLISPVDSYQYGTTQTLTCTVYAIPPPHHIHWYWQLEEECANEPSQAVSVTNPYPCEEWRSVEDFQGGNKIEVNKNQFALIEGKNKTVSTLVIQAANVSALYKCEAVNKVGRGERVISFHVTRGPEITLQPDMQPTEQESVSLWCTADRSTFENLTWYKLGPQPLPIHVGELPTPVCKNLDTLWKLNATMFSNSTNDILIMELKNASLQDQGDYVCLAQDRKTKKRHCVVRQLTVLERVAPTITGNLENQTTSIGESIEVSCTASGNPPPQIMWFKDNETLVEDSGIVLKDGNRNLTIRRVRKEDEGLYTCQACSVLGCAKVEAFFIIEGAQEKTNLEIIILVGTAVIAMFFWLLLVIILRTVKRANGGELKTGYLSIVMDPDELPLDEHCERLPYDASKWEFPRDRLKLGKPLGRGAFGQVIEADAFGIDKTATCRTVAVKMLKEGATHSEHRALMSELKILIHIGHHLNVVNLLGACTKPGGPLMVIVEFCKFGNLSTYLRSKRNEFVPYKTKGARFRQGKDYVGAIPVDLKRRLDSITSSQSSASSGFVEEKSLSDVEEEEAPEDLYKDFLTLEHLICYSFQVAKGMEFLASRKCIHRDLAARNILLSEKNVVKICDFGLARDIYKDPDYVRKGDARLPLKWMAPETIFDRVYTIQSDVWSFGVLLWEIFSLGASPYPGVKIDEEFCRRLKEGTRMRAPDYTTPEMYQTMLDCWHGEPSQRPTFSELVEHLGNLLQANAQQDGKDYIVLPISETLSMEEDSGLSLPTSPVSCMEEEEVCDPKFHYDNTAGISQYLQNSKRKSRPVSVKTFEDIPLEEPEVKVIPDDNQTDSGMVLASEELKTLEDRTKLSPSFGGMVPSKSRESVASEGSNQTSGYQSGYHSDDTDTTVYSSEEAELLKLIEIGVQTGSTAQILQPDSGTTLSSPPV
Chain of Receptor tyrosine-protein kinase erbB-2 (Homo sapiens) (P04626 whole entry): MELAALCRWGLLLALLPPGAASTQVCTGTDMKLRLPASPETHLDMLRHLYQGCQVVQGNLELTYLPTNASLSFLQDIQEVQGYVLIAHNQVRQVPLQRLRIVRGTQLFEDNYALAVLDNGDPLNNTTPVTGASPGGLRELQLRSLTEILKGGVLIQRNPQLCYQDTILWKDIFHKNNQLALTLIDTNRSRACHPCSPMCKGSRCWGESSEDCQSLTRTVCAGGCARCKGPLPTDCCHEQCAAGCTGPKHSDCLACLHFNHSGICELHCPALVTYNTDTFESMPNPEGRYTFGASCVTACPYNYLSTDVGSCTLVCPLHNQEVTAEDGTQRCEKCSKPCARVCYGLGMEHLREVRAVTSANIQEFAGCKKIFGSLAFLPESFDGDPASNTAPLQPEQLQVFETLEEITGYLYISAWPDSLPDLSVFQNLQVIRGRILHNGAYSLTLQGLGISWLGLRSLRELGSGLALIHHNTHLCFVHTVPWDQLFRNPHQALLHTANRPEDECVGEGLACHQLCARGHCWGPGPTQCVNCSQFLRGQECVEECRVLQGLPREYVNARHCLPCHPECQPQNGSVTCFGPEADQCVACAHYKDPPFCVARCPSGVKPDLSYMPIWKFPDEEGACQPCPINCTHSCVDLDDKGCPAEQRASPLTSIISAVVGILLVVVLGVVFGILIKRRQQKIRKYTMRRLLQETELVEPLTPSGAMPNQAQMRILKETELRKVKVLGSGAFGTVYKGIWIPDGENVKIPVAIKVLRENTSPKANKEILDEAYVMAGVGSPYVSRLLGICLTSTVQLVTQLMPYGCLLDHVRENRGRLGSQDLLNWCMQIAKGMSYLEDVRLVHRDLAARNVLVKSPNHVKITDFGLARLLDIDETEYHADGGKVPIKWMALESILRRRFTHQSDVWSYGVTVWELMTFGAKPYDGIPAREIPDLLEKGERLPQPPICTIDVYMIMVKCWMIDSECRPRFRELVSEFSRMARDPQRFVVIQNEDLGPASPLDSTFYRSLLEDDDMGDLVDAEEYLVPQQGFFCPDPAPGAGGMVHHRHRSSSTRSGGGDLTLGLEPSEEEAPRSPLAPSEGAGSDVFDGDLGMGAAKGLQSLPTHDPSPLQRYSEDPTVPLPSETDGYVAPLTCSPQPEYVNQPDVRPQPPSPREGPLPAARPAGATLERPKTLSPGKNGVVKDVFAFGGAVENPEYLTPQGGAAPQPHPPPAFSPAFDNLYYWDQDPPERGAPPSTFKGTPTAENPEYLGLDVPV
Chain of RAC-alpha serine/threonine-protein kinase (Homo sapiens) (P31749 whole entry): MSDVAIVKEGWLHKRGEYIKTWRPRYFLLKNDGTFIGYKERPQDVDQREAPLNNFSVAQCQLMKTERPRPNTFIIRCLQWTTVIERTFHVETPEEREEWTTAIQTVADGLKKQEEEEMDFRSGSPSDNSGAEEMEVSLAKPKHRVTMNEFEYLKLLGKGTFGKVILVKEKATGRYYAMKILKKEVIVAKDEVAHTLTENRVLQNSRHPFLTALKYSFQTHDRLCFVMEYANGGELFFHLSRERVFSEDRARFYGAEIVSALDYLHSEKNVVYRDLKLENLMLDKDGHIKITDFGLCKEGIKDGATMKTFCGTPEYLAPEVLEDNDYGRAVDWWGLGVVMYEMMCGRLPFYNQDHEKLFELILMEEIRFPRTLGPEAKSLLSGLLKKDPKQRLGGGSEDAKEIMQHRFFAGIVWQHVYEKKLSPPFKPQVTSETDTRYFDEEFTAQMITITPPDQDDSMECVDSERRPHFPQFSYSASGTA

By inhibition is commonly meant the relative decrease from the control value, in per cent. By IC50 is commonly meant the midpoint of a concentration-inhibition curve. For the compound `CN(C)CCNc1ncc2cc(Oc3ccc(F)cc3F)c(=O)n(C)c2n1`, the inhibition was 20% in [1]; 0% in [2]; 9% in test [4]; 2% in [5]; 13% in test [6]; 51% in [7]. Moreover, the inhibition in test [8] is 0%; in test [9], 0%; in [10] it was 0%; in test [11] it was 0%; in [12] it was 8%; in test [13], 1%. In addition, the inhibition in [14] amounted to 1%; in [15], 1%; in test [16], 5%; in [17], 6%; in test [19] it was 5%; in test [20], 5%. In addition, the values for the inhibition in [21], in test [22] and in [23] were 0%, 0% and 7%, respectively. Also, in test [3], the Activity turned out to be 110%. Also, the concentration for half-maximal inhibition (IC50) in test [18] is greater than 23 µM.

Consider `CN1CCN(CCCNc2ncc3cc(Oc4ccc(F)cc4F)c(=O)n(C)c3n2)CC1`, for which the inhibition worked out at 2% in [1]; 8% in test [2]; 13% in [4]; 3% in test [5]; 3% in [6]; 91% in [7]. Besides, the inhibition in test [8] is 0%; in [9], 0%; in test [10] it was 24%; in test [11], 2%; in test [12], 23%; in [13], 30%. Moreover, the inhibition in [14] amounted to 0%; in test [15], 24%; in test [16], 29%; in test [17] it was 18%; in [19] it was 0%; in test [20] it was 9%. The results for the inhibition in test [21], in test [22] and in test [23] were 0%, 12% and 6%, respectively. For the same compound, the Activity in test [3] was found to be 137%. This compound yielded an IC50 in test [18] of 19.1 µM.

Take `Cn1c(=O)c(Oc2ccc(F)cc2F)cc2cnc(NC3CCN(S(N)(=O)=O)CC3)nc21`: the Activity in test [3] was determined as 89.4%. The compound also displayed a half-maximal inhibitory concentration (IC50) in [18] of 0.91 µM.

With `Cn1c(=O)c(Oc2ccc(F)cc2F)cc2cnc(NCCc3ccccn3)nc21`, the inhibition in [1] came to 22%; in test [2] it was 10%; in test [4] it was 35%; in test [5] it was 3%; in test [6], 6%; in [7], 95%. Moreover, the inhibition in [8] was 5%; in [9], 0%; in [10], 7%; in test [11], 2%; in [12], 19%; in test [13], 3%. The inhibition is 3% in test [14]; 11% in test [15]; 6% in [16]; 16% in test [17]; 6% in test [19]; 15% in [20]. In addition, the values for the inhibition in test [21], in test [22] and in test [23] were 0%, 0% and 4%, respectively. Moreover, the Activity in test [3] came to 96.4%. This compound also had an IC50 in [18] of 6.75 µM.

For the compound `Cn1c(=O)c(Oc2ccc(F)cc2F)cc2cnc(Nc3ccc(N4CCCCC4)cc3)nc21`, the inhibition in [1] was 29%; in test [2], 35%; in test [4], 9%; in test [5], 5%; in [6], 10%; in [7], 99%. Further, the inhibition in test [8] stood at 8%; in test [9] it was 29%; in test [10], 20%; in [11] it was 5%; in test [12], 26%; in test [13], 20%. The inhibition in test [14] amounted to 24%; in [15] it was 46%; in [16], 39%; in [17], 28%; in [19], 9%; in test [20], 33%. For the same compound, the inhibition in test [21] worked out at 10%; in [22] it was 0%; in test [23], 14%. Also, the Activity in test [3] was found to be 131%. The IC50 in test [18] was greater than 23 µM.

With `CN1CCN(c2ccc(Nc3ncc4cc(Oc5c(Cl)cccc5Cl)c(=O)n(C)c4n3)cc2)CC1`, the inhibition was 18% in test [1]; 47% in [2]; 50% in [4]; 3% in test [5]; 14% in test [6]; 89% in test [7]. Also, the inhibition amounted to 4% in [8]; 0% in test [9]; 91% in test [10]; 0% in test [11]; 42% in [12]; 24% in [13]. Also, the inhibition in [14] stood at 13%; in test [15], 43%; in [16], 41%; in test [17], 72%; in [19], 7%; in [20], 7%. Further, the inhibition in test [21] turned out to be 7%; in test [22] it was 15%; in test [23], 12%. Also, the Activity in test [3] was determined as 60.9%. Moreover, in [18], the IC50 was greater than 23 µM.
